Experimental data taken from ChEMBL document CHEMBL3885881, “DrugMatrix”.

Organism: Rattus norvegicus
Experiment: DrugMatrix - Regimen: Daily Repeat
Type: toxicity, organism-based, Sprague-Dawley
Set-up: regimen Daily Repeat, gender Male, age 6-8 weeks
Conditions: in vivo, po, route oral GAVAGE, […]; for ABSOLUTE BASOPHIL / ABSOLUTE EOSINOPHIL / ABSOLUTE LYMPHOCYTE / ABSOLUTE MONOCYTE / ABSOLUTE SEGMENTED NEUTROPHIL / BASOPHIL / EOSINOPHIL / ERYTHROCYTE COUNT / HEMATOCRIT / HEMOGLOBIN / LEUKOCYTE COUNT / LYMPHOCYTE / MEAN CORPUSCULAR HEMOGLOBIN / MEAN CORPUSCULAR HEMOGLOBIN CONCENTRATION / MEAN CORPUSCULAR VOLUME / MONOCYTE / NEUTROPHIL / NUCLEATED RED BLOOD CELLS / PLATELET COUNT: tissue Blood; for ALANINE AMINOTRANSFERASE / ALBUMIN / ALKALINE PHOSPHATASE / ASPARTATE AMINOTRANSFERASE / BLOOD UREA NITROGEN / CARBON DIOXIDE / CHLORIDE / CHOLESTEROL / CREATINE PHOSPHOKINASE / CREATININE / GLUCOSE / LACTATE DEHYDROGENASE / LIPASE / POTASSIUM / SODIUM / TOTAL BILIRUBIN / TOTAL PROTEIN / URIC ACID: tissue Plasma
[1] = 300 mg/kg, 72 h, dose level M1, time 3 day
[2] = 300 mg/kg, 120 h, dose level M1, time 5 day
[3] = 1500 mg/kg, 72 h, dose level High, time 3 day
[4] = 1500 mg/kg, 120 h, dose level High, time 5 day

CCc1ccc(CCOc2ccc(CC3SC(=O)NC3=O)cc2)nc1 (stereo not drawn) [PIOGLITAZONE]
ABSOLUTE BASOPHIL [1]: 0 CELLS/uL
ABSOLUTE EOSINOPHIL [1]: 0 CELLS/uL
ABSOLUTE LYMPHOCYTE [1]: 15172.67 CELLS/uL
ABSOLUTE MONOCYTE [1]: 43 CELLS/uL
ABSOLUTE SEGMENTED NEUTROPHIL [1]: 1184.33 CELLS/uL
BASOPHIL [1]: 0%
EOSINOPHIL [1]: 0%
ERYTHROCYTE COUNT [1]: 4.93 x10E6/uL
HEMATOCRIT [1]: 32.73%
HEMOGLOBIN [1]: 13 G/DL
LEUKOCYTE COUNT [1]: 16.4 x10E3/uL
LYMPHOCYTE [1]: 92.33%
MEAN CORPUSCULAR HEMOGLOBIN [1]: 26.4 pg
MEAN CORPUSCULAR HEMOGLOBIN CONCENTRATION [1]: 39.73 G/DL
MEAN CORPUSCULAR VOLUME [1]: 66.4 fL
MONOCYTE [1]: 0.33%
NEUTROPHIL [1]: 7.33%
NUCLEATED RED BLOOD CELLS [1]: 0.67 /100WBC
PLATELET COUNT [1]: 1282 x10E3/uL
ALANINE AMINOTRANSFERASE [1]: 81.33 u/L
ALBUMIN [1]: 4.1 G/DL
ALKALINE PHOSPHATASE [1]: 504.67 u/L
ASPARTATE AMINOTRANSFERASE [1]: 92 u/L
BLOOD UREA NITROGEN [1]: 13.67 mg/dL
CARBON DIOXIDE [1]: 34 mmol/L
CHLORIDE [1]: 103.33 MEQ/L
CHOLESTEROL [1]: 58.33 mg/dL
CREATINE PHOSPHOKINASE [1]: 248.33 u/L
CREATININE [1]: 0.22 mg/dL
GLUCOSE [1]: 137 mg/dL
LACTATE DEHYDROGENASE [1]: 98 u/L
LIPASE [1]: 10.67 u/L
POTASSIUM [1]: 6.5 MEQ/L
SODIUM [1]: 143.9 MEQ/L
TOTAL BILIRUBIN [1]: 0.1 mg/dL
TOTAL PROTEIN [1]: 5.47 G/DL
URIC ACID [1]: 1.27 mg/dL
ABSOLUTE BASOPHIL [2]: 0 CELLS/uL
ABSOLUTE EOSINOPHIL [2]: 0 CELLS/uL
ABSOLUTE LYMPHOCYTE [2]: 12765 CELLS/uL
ABSOLUTE MONOCYTE [2]: 138.67 CELLS/uL
ABSOLUTE SEGMENTED NEUTROPHIL [2]: 829.67 CELLS/uL
BASOPHIL [2]: 0%
EOSINOPHIL [2]: 0%
ERYTHROCYTE COUNT [2]: 4.76 x10E6/uL
HEMATOCRIT [2]: 31.27%
HEMOGLOBIN [2]: 12.9 G/DL
LEUKOCYTE COUNT [2]: 13.73 x10E3/uL
LYMPHOCYTE [2]: 93%
MEAN CORPUSCULAR HEMOGLOBIN [2]: 27.17 pg
MEAN CORPUSCULAR HEMOGLOBIN CONCENTRATION [2]: 41.37 G/DL
MEAN CORPUSCULAR VOLUME [2]: 65.73 fL
MONOCYTE [2]: 1%
NEUTROPHIL [2]: 6%
NUCLEATED RED BLOOD CELLS [2]: 0.67 /100WBC
PLATELET COUNT [2]: 1095.33 x10E3/uL
ALANINE AMINOTRANSFERASE [2]: 71.67 u/L
ALBUMIN [2]: 4.07 G/DL
ALKALINE PHOSPHATASE [2]: 406.67 u/L
ASPARTATE AMINOTRANSFERASE [2]: 102.33 u/L
BLOOD UREA NITROGEN [2]: 14.33 mg/dL
CARBON DIOXIDE [2]: 33.33 mmol/L
CHLORIDE [2]: 101.33 MEQ/L
CHOLESTEROL [2]: 56.67 mg/dL
CREATINE PHOSPHOKINASE [2]: 223.67 u/L
CREATININE [2]: 0.16 mg/dL
GLUCOSE [2]: 150.33 mg/dL
LACTATE DEHYDROGENASE [2]: 224.33 u/L
LIPASE [2]: 10.33 u/L
POTASSIUM [2]: 5.99 MEQ/L
SODIUM [2]: 143.9 MEQ/L
TOTAL BILIRUBIN [2]: 0.1 mg/dL
TOTAL PROTEIN [2]: 5.73 G/DL
URIC ACID [2]: 1.43 mg/dL
ABSOLUTE BASOPHIL [3]: 0 CELLS/uL
ABSOLUTE EOSINOPHIL [3]: 0 CELLS/uL
ABSOLUTE LYMPHOCYTE [3]: 8411 CELLS/uL
ABSOLUTE MONOCYTE [3]: 92.33 CELLS/uL
ABSOLUTE SEGMENTED NEUTROPHIL [3]: 1396.67 CELLS/uL
BASOPHIL [3]: 0%
EOSINOPHIL [3]: 0%
ERYTHROCYTE COUNT [3]: 4.68 x10E6/uL
HEMATOCRIT [3]: 29.23%
HEMOGLOBIN [3]: 11.2 G/DL
LEUKOCYTE COUNT [3]: 9.9 x10E3/uL
LYMPHOCYTE [3]: 84.33%
MEAN CORPUSCULAR HEMOGLOBIN [3]: 23.93 pg
MEAN CORPUSCULAR HEMOGLOBIN CONCENTRATION [3]: 38.27 G/DL
MEAN CORPUSCULAR VOLUME [3]: 62.47 fL
MONOCYTE [3]: 1%
NEUTROPHIL [3]: 14.67%
NUCLEATED RED BLOOD CELLS [3]: 0.33 /100WBC
PLATELET COUNT [3]: 1023.33 x10E3/uL
ALANINE AMINOTRANSFERASE [3]: 85.67 u/L
ALBUMIN [3]: 3.97 G/DL
ALKALINE PHOSPHATASE [3]: 537.33 u/L
ASPARTATE AMINOTRANSFERASE [3]: 97.67 u/L
BLOOD UREA NITROGEN [3]: 12.33 mg/dL
CARBON DIOXIDE [3]: 34.67 mmol/L
CHLORIDE [3]: 101 MEQ/L
CHOLESTEROL [3]: 67 mg/dL
CREATINE PHOSPHOKINASE [3]: 311.67 u/L
CREATININE [3]: 0.36 mg/dL
GLUCOSE [3]: 131 mg/dL
LACTATE DEHYDROGENASE [3]: 114.33 u/L
LIPASE [3]: 9.67 u/L
POTASSIUM [3]: 5.48 MEQ/L
SODIUM [3]: 145 MEQ/L
TOTAL BILIRUBIN [3]: 0.1 mg/dL
TOTAL PROTEIN [3]: 5.57 G/DL
URIC ACID [3]: 0.67 mg/dL
ABSOLUTE BASOPHIL [4]: 0 CELLS/uL
ABSOLUTE EOSINOPHIL [4]: 36.67 CELLS/uL
ABSOLUTE LYMPHOCYTE [4]: 8937 CELLS/uL
ABSOLUTE MONOCYTE [4]: 131.33 CELLS/uL
ABSOLUTE SEGMENTED NEUTROPHIL [4]: 1128.33 CELLS/uL
BASOPHIL [4]: 0%
EOSINOPHIL [4]: 0.33%
ERYTHROCYTE COUNT [4]: 4.76 x10E6/uL
HEMATOCRIT [4]: 30.03%
HEMOGLOBIN [4]: 11.5 G/DL
LEUKOCYTE COUNT [4]: 10.23 x10E3/uL
LYMPHOCYTE [4]: 87.33%
MEAN CORPUSCULAR HEMOGLOBIN [4]: 24.2 pg
MEAN CORPUSCULAR HEMOGLOBIN CONCENTRATION [4]: 38.3 G/DL
MEAN CORPUSCULAR VOLUME [4]: 63.17 fL
MONOCYTE [4]: 1.33%
NEUTROPHIL [4]: 11%
NUCLEATED RED BLOOD CELLS [4]: 0 /100WBC
PLATELET COUNT [4]: 962 x10E3/uL
ALANINE AMINOTRANSFERASE [4]: 56.33 u/L
ALBUMIN [4]: 3.93 G/DL
ALKALINE PHOSPHATASE [4]: 338.67 u/L
ASPARTATE AMINOTRANSFERASE [4]: 80 u/L
BLOOD UREA NITROGEN [4]: 13.67 mg/dL
CARBON DIOXIDE [4]: 33.67 mmol/L
CHLORIDE [4]: 101 MEQ/L
CHOLESTEROL [4]: 62.67 mg/dL
CREATINE PHOSPHOKINASE [4]: 366 u/L
CREATININE [4]: 0.36 mg/dL
GLUCOSE [4]: 140.67 mg/dL
LACTATE DEHYDROGENASE [4]: 107.33 u/L
LIPASE [4]: 8.67 u/L
POTASSIUM [4]: 5.6 MEQ/L
SODIUM [4]: 144.53 MEQ/L
TOTAL BILIRUBIN [4]: 0.17 mg/dL
TOTAL PROTEIN [4]: 5.47 G/DL
URIC ACID [4]: 0.63 mg/dL
